# Laboratory results taken from patent US5591773A, “Inhibition of cataract formation, diseases resulting from oxidative stress, and HIV replication by caffeic acid esters” (priority 1994, dated 1997).
# Several values for one entry are separate records, joined by “and”; a condition that tells them apart may be missing. Equal values may be shown once. Entries after “also recorded” stand apart in the source; their conditions may differ.
# Experiments:
# [1] = tested on: TPA-induced PMN infiltration in mouse skin (MPO); assay: TPA-induced PMN infiltration (MPO) in dorsal skin of SENCAR mice; type: in vivo
# Experimental: FIGS. 2A-2D. CAPE-mediated inhibition of TPA-induced oxidative processes in SENCAR mice. Mice were topically treated with 6.5 nmol CAPE 30 min prior to 6.5 nmol TPA, and this regimen was repeated 20 h later. Mice were sacrificed 1 h after the last treatment and the skin removed for determination of: (FIG. 2A) PMN infiltration (by measuring myeloperoxidase (MPO)); (FIG. 2B) H2 O2; (FIG. 2C) HMdUrd (HMdU); and (FIG. 2D) 8-OHdGua (8-OHdG), according to procedures described in the "Experimental Details" Section, infra. .quadrature., controls treated with acetone in place of CAPE and TPA; , treatment with acetone followed by TPA; .box-solid., treatment with CAPE followed by TPA. Results are expressed as mean ± SE (bars) from two experiments (2 mice/experiment) in the CAPE series. Data for acetone (ACT)- and TPA-treated mean values were collected from over 20 experiments.
# A) Treatment of Animals and Assays. Female SENCAR (6-8 weeks old) and CD-1 mice (about 7 weeks old) were purchased from Biological Testing, National Cancer Institute (Frederick, Md.) and from Charles River Laboratory (Stone Ridge, N.Y.), respectively. The mice were acclimated for at least 1 week before use. They were subjected to a 12-h light/12-h dark cycle, housed at 20°±2° C. in a room with 10 cycles of air exchanges/h, given food and water ad libitum, and observed for any indication of ill health. Before topical application of any test agents, their backs were shaved and only those without hair growth after 48 h were used.
# C) MPO, H2 O2, and Oxidized DNA Bases. SENCAR mice were pretreated with CAPE for 30 min; then 6.5 nmol (4 μg) TPA/mouse topically applied to the dorsal skin. After 20 h, the CAPE and TPA treatment (1x) was repeated (2x treatment). One h after the second treatment, the mice were sacrificed by cervical dislocation, and 12.5-mm punches were obtained to be used separately for MPO and H2 O2 determinations. The remainder of the treated mouse skin or the combined skins from two mice were used for separation of epidermal cells. This was done by heating the skin at 55° C. for 30 s followed by rapid immersion into an ice-cold water bath (45). After the epidermis was scraped off, the presence of oxidized DNA base derivatives was measured in the epidermal DNA. All of these end points were analyzed by published procedures and are briefly described below.
# The assay for MPO was carried out according to the procedure of Metcalf et al. (53) with some modifications (20), and the results are expressed as units/cm^2, where a unit is defined as that degrading 1 μmol H2 O2 /min at 25° C. The presence of MPO in the mouse ears was measured in the homogenates. They were prepared by mincing the ears and homogenizing them in an ice-cold water bath with a polytron homogenizer, either twice for 20 s each or three times for 10 s each. Each homogenate was analyzed in duplicate and the results are expressed as mean MPO (units/mg protein) ±SE for each of the homogenates.
# ^a Mice were treated as described in the legend to FIG. 2, except tha
# bovine lens (opacity) = assay: TPA-induced opacity of bovine lens; type: cell-based; settings: 0.1 μM TPA, 24 h
# Experimental: FIGS. 5A-5C. CAPE-mediated protection of bovine lens from TPA-induced opacity. Lenses were incubated with artificial aqueous humor only (FIG. 5A); incubated with 0.1 μM TPA (FIG. 5B); and pretreated with 1 μM CAPE for 30 min followed by 0.1 μM TPA (FIG. 5C) for 24 h. After incubation, the lenses were photographed against 3-mm grids.
# (§1) B) Bovine Lens Bovine lenses were obtained from a New Jersey slaughterhouse 3 h after the animals were sacrificed. Lenses were immediately immersed in artificial aqueous humor (AAH; 130 mMNaCl, 5 mMKCl, 1 mM CaCl2, 0.5 mM MgCl2, 10 mM NaHCO3, 10 mM 4-(2-hydroxyethyl)-1-piperazineethanesulfonic acid (pH 7.3), and 2.5 mM D-glucose). Each of the bovine lenses in AAH (about 15 ml/lens) supplemented with 10 mM azide (a catalase inhibitor) was incubated with various amounts (0-1 μM) TPA at 37° C. for 24 h in the presence or absence of CAPE (1 μM), as described for use of other chemopreventive agents (31). For comparison, the lenses were also incubated with glucose (2.5 mM)/glucose oxidase (25 μM), a H2 O2 -generating system.
# In some experiments, at the end of incubation [lenses in (a) AAH only (controls), (b) AAH+0.1 μM TPA, and (c) AAH+1 μM CAPE (30 min)+0.1 μM TPA] at 37° C. for 24 h, the lenses were photographed against a 3-mm grid.
# bovine lens (H2O2) = assay: H2O2 formation in bovine lens; type: cell-based; settings: for H2O2 / increase in H2O2 concentration over control lenses: 24 h; for H2O2: mean of 3 ± SE
# Experimental: as §1
# After incubation, lenses were homogenized in 15 ml of azide-supplemented AAH in a Waring Blender, and H2 O2 content was determined spectrofluorometrically, as described previously (55). Briefly, the homogenates were incubated with 2',7'-dichlorofluorescin diacetate, which is deacetylated by the esterase present in the homogenate. In the presence of HRPO, the nonfluorescent substrate was oxidized by H2 O2 generated in the lens to a highly fluorescent product, which was measured at excitation 475 nm and emission 525 nm (30, 31, 55). The amount of H2 O2 generated was determined from a standard curve, which was constructed by addition of increasing concentrations of H2 O2 to a homogenate derived from a control lens incubated only in AAH.
compound,measurement,setting,value
"CCCCCCCCCCCCCC(=O)O[C@@H]1[C@@H](C)[C@@]2(O)[C@@H](C=C(CO)C[C@]3(O)C(=O)C(C)=C[C@@H]23)[C@@H]2C(C)(C)[C@]12OC(C)=O [TPA, 12-O-tetradecanoylphorbol-13-acetate]",MPO,"[1]; TPA alone, 6.5 nmol, mean ± SE (spread on next printed line: 7.6)",23.7 units/cm^2 skin
same,lens opacity (in words),bovine lens (opacity),caused opacity of the lens
same,"H2O2, % of change from control",bovine lens (H2O2); 0.01 μM TPA,95%
same,H2O2,bovine lens (H2O2); 0.01 μM TPA,11.3 ± 0.2 µM
same,"H2O2, % of change from control",bovine lens (H2O2); 0.05 μM TPA,200%
same,increase in H2O2 concentration over control lenses,bovine lens (H2O2); 0.05 μM TPA,about 2 fold
same,H2O2,bovine lens (H2O2); 0.05 μM TPA,23.3 ± 1.3 µM
same,"H2O2, % of change from control",bovine lens (H2O2); 0.10 μM TPA,360%
same,increase in H2O2 concentration over control lenses,bovine lens (H2O2); 0.1 μM TPA,~3.5 fold
same,H2O2,bovine lens (H2O2); 0.10 μM TPA,42.7 ± 1.6 µM
same,"H2O2, % of change from control",bovine lens (H2O2); 1.0 μM TPA,705%
same,increase in H2O2 concentration over control lenses,bovine lens (H2O2); 1.0 μM TPA,~7 fold
same,H2O2,bovine lens (H2O2); 1.0 μM TPA,83.8 ± 5.6 µM
"O=C(/C=C/c1ccc(O)c(O)c1)OCCc1ccccc1 [CAPE, Caffeic acid phenethyl ester]",decrease of TPA-induced PMN infiltration,"[1]; CAPE 6.5 nmol 30 min before each of two TPA 6.5 nmol applications, SENCAR mouse skin",≈ 85% and 85%
same,MPO,"[1]; CAPE 6.5 nmol pretreatment then TPA 6.5 nmol, 2x, (4 experiments), SE 0.3 on next line",5.9 units/cm^2 skin
same,MPO,"[1]; CAPE 650 nmol pretreatment then TPA 6.5 nmol, 2x, (4 experiments), SE 2.0 on next line",10.8 units/cm^2 skin
same,TPA-mediated PMN infiltration and formation of HMdUrd and 8-OHdGua at high dose (in words),"[1]; CAPE 650 nmol/treatment, 2x, 20 h apart, vs 6.5 nmol",this reduction was not as effective as that caused by the lower (6.5 nmol) dose of CAPE
same,prevention of lens opacification (in words),bovine lens (opacity); 1 μM CAPE,almost completely prevented opacification of the lens; also recorded: suppressed formation of TPA-induced H2 O2 formation and opacification of lenses
same,H2O2,bovine lens (H2O2); 1 μM CAPE 30 min then 0.1 μM TPA,13.1 ± 1.3 µM
same,"H2O2, % of change from control",bovine lens (H2O2); 1 μM CAPE/0.1 μM TPA,110%
same,inhibition at 1 µM,"bovine lens (H2O2); Bos taurus, 1 μM CAPE 30 min, then 0.1 μM TPA 24 h, read-out: decline in TPA-induced H2O2 production",~95%
